Experimental data reported in ChEMBL document CHEMBL1155997, “Design and synthesis of novel substituted quinazoline derivatives as antileishmanial agents” (Bioorg Med Chem Lett, 2009).
≈ marks a conversion by molar mass, not a printed value. Values belong to the molecule of their own block, whether it stands above or below them. Calls of active or inactive are those of the source. No cut-off for these calls is given here.

Key:
Leishmania donovani [1] = test: Antileishmanial activity against Leishmania donovani in luciferase-promastigote system at 10 ug/ml; assay type: functional
Leishmania donovani [2] = test: Antileishmanial activity against Leishmania donovani in luciferase-amastigote system; assay type: functional, organism-based

Molecule: Clc1ccc(-c2nc(N3CCCCC3)nc3c2CCc2ccccc2-3)c(Cl)c1
inhibition at 10 µg/mL (Leishmania donovani [1]): 95.2%

IC50 (Leishmania donovani [2]): 5.2 µg/mL (≈ 13.7 µM)
Molecule: Clc1ccc(C2NC(N3CCOCC3)=NC3=C2CCc2ccccc23)cc1 (configuration not stated)
inhibition at 10 µg/mL (Leishmania donovani [1]): 98.7%

Molecule: Fc1ccc(-c2nc(N3CCCCC3)nc3c2CCc2ccccc2-3)cc1
inhibition at 10 µg/mL (Leishmania donovani [1]): 47.8%

Molecule: c1ccc(-c2nc(N3CCCCC3)nc3c2CCc2ccccc2-3)cc1
inhibition at 10 µg/mL (Leishmania donovani [1]): 91.8%

Molecule: Clc1ccc(-c2nc(N3CCCC3)nc3c2CCc2ccccc2-3)cc1
inhibition at 10 µg/mL (Leishmania donovani [1]): 58.3%

IC50 (Leishmania donovani [2]): 8.95 µg/mL (≈ 24.6 µM)
Molecule: Clc1ccc(C2NC(N3CCCC3)=NC3=C2CCc2ccccc23)cc1 (configuration not stated)
inhibition at 10 µg/mL (Leishmania donovani [1]): 96.3%

Molecule: Clc1ccc(-c2nc(N3CCOCC3)nc3c2CCc2ccccc2-3)c(Cl)c1
inhibition at 10 µg/mL (Leishmania donovani [1]): 93.1%

Molecule: c1ccc(-c2nc(N3CCN(c4ccccn4)CC3)nc3c2CCc2ccccc2-3)cc1
inhibition at 10 µg/mL (Leishmania donovani [1]): 62.2%

Molecule: N=C(N)c1ccc(OCCCCCOc2ccc(C(=N)N)cc2)cc1 [PENTAMIDINE]
inhibition at 10 µg/mL (Leishmania donovani [1]): 100%

IC50 (Leishmania donovani [2]): 2.65 µg/mL (≈ 5.81 µM)
Molecule: Clc1ccc(C2NC(N3CCN(c4ccccn4)CC3)=NC3=C2CCc2ccccc23)cc1 (configuration not stated)
inhibition at 10 µg/mL (Leishmania donovani [1]): 99.9%

Molecule: c1ccc(-c2nc(N3CCCC3)nc3c2CCc2ccccc2-3)cc1
inhibition at 10 µg/mL (Leishmania donovani [1]): 74.7%

Molecule: Clc1ccc(C2NC(N3CCCC3)=NC3=C2CCc2ccccc23)c(Cl)c1 (configuration not stated)
inhibition at 10 µg/mL (Leishmania donovani [1]): 99.8%

Molecule: Clc1ccc(-c2nc(N3CCCC3)nc3c2CCc2ccccc2-3)c(Cl)c1
inhibition at 10 µg/mL (Leishmania donovani [1]): 77.9%

Molecule: c1ccc(-c2nc(N3CCOCC3)nc3c2CCc2ccccc2-3)cc1
inhibition at 10 µg/mL (Leishmania donovani [1]): 71.5%

Molecule: Clc1ccc(C2NC(N3CCOCC3)=NC3=C2CCc2ccccc23)c(Cl)c1 (configuration not stated)
inhibition at 10 µg/mL (Leishmania donovani [1]): 99.7%

Molecule: Clc1ccc(-c2nc(N3CCCCC3)nc3c2CCc2ccccc2-3)cc1
inhibition at 10 µg/mL (Leishmania donovani [1]): 53.5%

Molecule: c1ccc(C2NC(N3CCN(c4ccccn4)CC3)=NC3=C2CCc2ccccc23)cc1 (configuration not stated)
inhibition at 10 µg/mL (Leishmania donovani [1]): 99.4%

Molecule: Fc1ccc(-c2nc(N3CCCC3)nc3c2CCc2ccccc2-3)cc1
inhibition at 10 µg/mL (Leishmania donovani [1]): 61.8%

IC50 (Leishmania donovani [2]): 3.58 µg/mL (≈ 8.14 µM)
Molecule: Fc1ccc(C2NC(N3CCN(c4ccccn4)CC3)=NC3=C2CCc2ccccc23)cc1 (configuration not stated)
inhibition at 10 µg/mL (Leishmania donovani [1]): 68.2%

IC50 (Leishmania donovani [2]): 3.22 µg/mL (≈ 8.91 µM)
Molecule: Fc1ccc(C2NC(N3CCCCC3)=NC3=C2CCc2ccccc23)cc1 (configuration not stated)
inhibition at 10 µg/mL (Leishmania donovani [1]): 99.9%

Molecule: Fc1ccc(-c2nc(N3CCN(c4ccccn4)CC3)nc3c2CCc2ccccc2-3)cc1
inhibition at 10 µg/mL (Leishmania donovani [1]): 44.9%

Molecule: Clc1ccc(-c2nc(N3CCN(c4ccccn4)CC3)nc3c2CCc2ccccc2-3)c(Cl)c1
inhibition at 10 µg/mL (Leishmania donovani [1]): 15.7%

Molecule: Clc1ccc(-c2nc(N3CCOCC3)nc3c2CCc2ccccc2-3)cc1
inhibition at 10 µg/mL (Leishmania donovani [1]): 74.8%

Molecule: D-gluconic acid, 2,4:2',4'-O-[oxybis-oxidostibylidyne]bis-, trisodium salt, nonahydrate
inhibition (Leishmania donovani [1]): inactive

Molecule: Clc1ccc(-c2nc(N3CCN(c4ccccn4)CC3)nc3c2CCc2ccccc2-3)cc1
inhibition at 10 µg/mL (Leishmania donovani [1]): 51.4%

Molecule: c1ccc(C2NC(N3CCOCC3)=NC3=C2CCc2ccccc23)cc1 (configuration not stated)
inhibition at 10 µg/mL (Leishmania donovani [1]): 99.9%

Molecule: c1ccc(C2NC(N3CCCC3)=NC3=C2CCc2ccccc23)cc1 (configuration not stated)
inhibition at 10 µg/mL (Leishmania donovani [1]): 99.8%

Molecule: Clc1ccc(C2NC(N3CCCCC3)=NC3=C2CCc2ccccc23)cc1 (configuration not stated)
inhibition at 10 µg/mL (Leishmania donovani [1]): 99.6%

Molecule: Clc1ccc(C2NC(N3CCCCC3)=NC3=C2CCc2ccccc23)c(Cl)c1 (configuration not stated)
inhibition at 10 µg/mL (Leishmania donovani [1]): 99.7%

Molecule: Fc1ccc(C2NC(N3CCOCC3)=NC3=C2CCc2ccccc23)cc1 (configuration not stated)
inhibition at 10 µg/mL (Leishmania donovani [1]): 99.6%

Molecule: Fc1ccc(-c2nc(N3CCOCC3)nc3c2CCc2ccccc2-3)cc1
inhibition at 10 µg/mL (Leishmania donovani [1]): 64.8%

IC50 (Leishmania donovani [2]): 4.07 µg/mL (≈ 11.7 µM)
Molecule: Fc1ccc(C2NC(N3CCCC3)=NC3=C2CCc2ccccc23)cc1 (configuration not stated)
inhibition at 10 µg/mL (Leishmania donovani [1]): 99.9%

IC50 (Leishmania donovani [2]): 6.33 µg/mL (≈ 12.9 µM)
Molecule: Clc1ccc(C2NC(N3CCN(c4ccccn4)CC3)=NC3=C2CCc2ccccc23)c(Cl)c1 (configuration not stated)
inhibition at 10 µg/mL (Leishmania donovani [1]): 99.9%

IC50 (Leishmania donovani [2]): 3.48 µg/mL (≈ 10.1 µM)
Molecule: c1ccc(C2NC(N3CCCCC3)=NC3=C2CCc2ccccc23)cc1 (configuration not stated)
inhibition at 10 µg/mL (Leishmania donovani [1]): 99.8%
